Source: patent US20100298141A1, “SUBSTITUTED PYRIDINE N-OXIDE HERBICIDES” (E. I. DU PONT DE NEMOURS AND COMPANY, priority 2007, published 2010)

Legend:
barnyardgrass [1] = assay: Test A pre-/postemergence greenhouse test; type: in vivo, Echinochloa crus-galli; conditions: for Barnyardgrass plant response rating: 0 to 100 scale; for Plant response rating, Barnyardgrass: 0 to 100 scale where 0 is no effect and 100 is complete control
In short: (§1)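 Greenhouse herbicide screen, pre- and postemergence in parallel. Soil: loam plus sand. Formulation: non-phytotoxic solvent mix with surfactant. Postemergence stage: one to two leaves, 2–10 cm height. Evaluation: visual injury, compared with untreated controls, about 10 days after treatment.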

crabgrass = assay: Test A pre-/postemergence greenhouse test; type: in vivo, Digitaria sanguinalis; conditions: for Crabgrass, Large plant response rating: 0 to 100 scale; for Plant response rating, Crabgrass, Large: 0 to 100 scale where 0 is no effect and 100 is complete control
In short: as §1

giant foxtail = assay: Test A pre-/postemergence greenhouse test; type: in vivo, Setaria faberi; conditions: for Foxtail, Giant plant response rating: 0 to 100 scale; for Plant response rating, Foxtail, Giant: 0 to 100 scale where 0 is no effect and 100 is complete control
In short: as §1

morningglory = assay: Test A pre-/postemergence greenhouse test; type: in vivo, Ipomoea spp.; conditions: for Morningglory plant response rating: 0 to 100 scale; for Plant response rating, Morningglory: 0 to 100 scale where 0 is no effect and 100 is complete control
In short: as §1

redroot pigweed = assay: Test A pre-/postemergence greenhouse test; type: in vivo, Amaranthus retroflexus; conditions: for Pigweed plant response rating: 0 to 100 scale; for Plant response rating, Pigweed: 0 to 100 scale where 0 is no effect and 100 is complete control
In short: as §1

velvetleaf = assay: Test A pre-/postemergence greenhouse test; type: in vivo, Abutilon theophrasti; conditions: for Velvetleaf plant response rating: 0 to 100 scale; for Plant response rating, Velvetleaf: 0 to 100 scale where 0 is no effect and 100 is complete control
In short: as §1

wheat = assay: Test A pre-/postemergence greenhouse test; type: in vivo, Triticum aestivum; conditions: for Wheat plant response rating: 0 to 100 scale; for Plant response rating, Wheat: 0 to 100 scale where 0 is no effect and 100 is complete control
In short: as §1

corn = assay: Test A pre-/postemergence greenhouse test; type: in vivo, Zea mays; conditions: for Corn plant response rating: 0 to 100 scale; for Plant response rating, Corn: 0 to 100 scale where 0 is no effect and 100 is complete control
In short: as §1

rice = assay: Test C flooded paddy test; type: in vivo, Oryza sativa; conditions: Flood
In short: (§2)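 Flooded 3 cm over soil; compound into paddy water; depth kept constant. Greenhouse 13–15 d.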

umbrella sedge = assay: Test C flooded paddy test; type: in vivo, Cyperus difformis; conditions: Flood
In short: as §2

duck salad = assay: Test C flooded paddy test; type: in vivo, Heteranthera limosa; conditions: Flood
In short: as §2

barnyardgrass [2] = assay: Test C flooded paddy test; type: in vivo, Echinochloa crus-galli; conditions: Flood
In short: as §2

[3] = Postemergence, 125 g ai/ha, 0 is no effect, 100 is complete control
[4] = Postemergence, 500 g ai/ha, 0 is no effect, 100 is complete control
[5] = Preemergence, 125 g ai/ha, 0 no effect, 100 complete control
[6] = 31 g ai/ha, scale 0 to 100 (0 no effect, 100 complete control)
[7] = 62 g ai/ha, scale 0 to 100, 0 no effect, 100 complete control, 13 to 15 days
[8] = 125 g ai/ha, scale 0 to 100, 0 no effect, 100 complete control, 13 to 15 days
[9] = 250 g ai/ha, scale 0 to 100 (0 no effect, 100 complete control)
[10] = 250 g ai/ha, scale 0 to 100, 0 no effect, 100 complete control, 13 to 15 days

CC(c1c(C(F)(F)F)nn(C)c1Cl)[S+]([O-])c1cccc[n+]1[O-] (mixture of isomers) [Compound 27]
Barnyardgrass plant response rating (barnyardgrass [1]; [3]): 20 | Barnyardgrass plant response rating (barnyardgrass [1]; [4]): 50 | Barnyardgrass plant response rating (barnyardgrass [1]; [5]): 0 | Plant response rating, Barnyardgrass (barnyardgrass [1]; Preemergence, 500 g ai/ha): 70 | Crabgrass, Large plant response rating (crabgrass; [3]): 0 | Crabgrass, Large plant response rating (crabgrass; [4]): 40 | Crabgrass, Large plant response rating (crabgrass; [5]): 40 | Plant response rating, Crabgrass, Large (crabgrass; Preemergence, 500 g ai/ha): 80 | Foxtail, Giant plant response rating (giant foxtail; [3]): 0 | Foxtail, Giant plant response rating (giant foxtail; [4]): 60 | Foxtail, Giant plant response rating (giant foxtail; [5]): 30 | Plant response rating, Foxtail, Giant (giant foxtail; Preemergence, 500 g ai/ha): 80 | Morningglory plant response rating (morningglory; [3]): 0 | Morningglory plant response rating (morningglory; [4]): 20 | Morningglory plant response rating (morningglory; [5]): 0 | Plant response rating, Morningglory (morningglory; Preemergence, 500 g ai/ha): 0 | Pigweed plant response rating (redroot pigweed; [3]): 0 | Pigweed plant response rating (redroot pigweed; [4]): 10 | Pigweed plant response rating (redroot pigweed; [5]): 0 | Plant response rating, Pigweed (redroot pigweed; Preemergence, 500 g ai/ha): 0 | Velvetleaf plant response rating (velvetleaf; [3]): 0 | Velvetleaf plant response rating (velvetleaf; [4]): 0 | Velvetleaf plant response rating (velvetleaf; [5]): 20 | Plant response rating, Velvetleaf (velvetleaf; Preemergence, 500 g ai/ha): 20 | Wheat plant response rating (wheat; [3]): 0 | Wheat plant response rating (wheat; [4]): 0 | Wheat plant response rating (wheat; [5]): 20 | Plant response rating, Wheat (wheat; Preemergence, 500 g ai/ha): 30 | Corn plant response rating (corn; [3]): 0 | Corn plant response rating (corn; [4]): 20 | Corn plant response rating (corn; [5]): 0 | Plant response rating, Corn (corn; Preemergence, 500 g ai/ha): 0 | Plant response rating, Rice (rice; [6]): 0 | Plant response rating, Rice (rice; [7]): 0 | Plant response rating, Rice (rice; [8]): 0 | Plant response rating, Rice (rice; [9]): 0 | Plant response rating, Sedge, Umbrella (umbrella sedge; [6]): 0 | Plant response rating, Sedge, Umbrella (umbrella sedge; [7]): 0 | Plant response rating, Sedge, Umbrella (umbrella sedge; [8]): 0 | Plant response rating, Sedge, Umbrella (umbrella sedge; [10]): 0 | Plant response rating, Ducksalad (duck salad; [6]): 0 | Plant response rating, Ducksalad (duck salad; [7]): 0 | Plant response rating, Ducksalad (duck salad; [8]): 0 | Plant response rating, Ducksalad (duck salad; [9]): 0 | Plant response rating, Barnyardgrass (barnyardgrass [2]; [6]): 0 | Plant response rating, Barnyardgrass (barnyardgrass [2]; [7]): 0 | Plant response rating, Barnyardgrass (barnyardgrass [2]; [8]): 0 | Plant response rating, Barnyardgrass (barnyardgrass [2]; [9]): 0

Cn1nc(C(F)(F)F)c(CS(=O)(=O)c2cc(F)cc[n+]2[O-])c1Cl [Compound 41]
Barnyardgrass plant response rating (barnyardgrass [1]; [3]): 0 | Barnyardgrass plant response rating (barnyardgrass [1]; [4]): 0 | Barnyardgrass plant response rating (barnyardgrass [1]; [5]): 0 | Plant response rating, Barnyardgrass (barnyardgrass [1]; Preemergence, 500 g ai/ha): 60 | Crabgrass, Large plant response rating (crabgrass; [3]): 0 | Crabgrass, Large plant response rating (crabgrass; [4]): 0 | Crabgrass, Large plant response rating (crabgrass; [5]): 0 | Plant response rating, Crabgrass, Large (crabgrass; Preemergence, 500 g ai/ha): 0 | Foxtail, Giant plant response rating (giant foxtail; [3]): 0 | Foxtail, Giant plant response rating (giant foxtail; [4]): 0 | Foxtail, Giant plant response rating (giant foxtail; [5]): 0 | Plant response rating, Foxtail, Giant (giant foxtail; Preemergence, 500 g ai/ha): 0 | Morningglory plant response rating (morningglory; [3]): 0 | Morningglory plant response rating (morningglory; [4]): 0 | Morningglory plant response rating (morningglory; [5]): 0 | Plant response rating, Morningglory (morningglory; Preemergence, 500 g ai/ha): 20 | Pigweed plant response rating (redroot pigweed; [3]): 0 | Pigweed plant response rating (redroot pigweed; [4]): 0 | Pigweed plant response rating (redroot pigweed; [5]): 0 | Plant response rating, Pigweed (redroot pigweed; Preemergence, 500 g ai/ha): 0 | Velvetleaf plant response rating (velvetleaf; [3]): 0 | Velvetleaf plant response rating (velvetleaf; [4]): 0 | Velvetleaf plant response rating (velvetleaf; [5]): 0 | Plant response rating, Velvetleaf (velvetleaf; Preemergence, 500 g ai/ha): 0 | Wheat plant response rating (wheat; [3]): 0 | Wheat plant response rating (wheat; [4]): 0 | Wheat plant response rating (wheat; [5]): 0 | Plant response rating, Wheat (wheat; Preemergence, 500 g ai/ha): 0 | Corn plant response rating (corn; [3]): 0 | Corn plant response rating (corn; [4]): 0 | Corn plant response rating (corn; [5]): 0 | Plant response rating, Corn (corn; Preemergence, 500 g ai/ha): 30 | Plant response rating, Rice (rice; [6]): 0 | Plant response rating, Rice (rice; [7]): 0 | Plant response rating, Rice (rice; [8]): 0 | Plant response rating, Rice (rice; [10]): 15 | Plant response rating, Sedge, Umbrella (umbrella sedge; [6]): 80 | Plant response rating, Sedge, Umbrella (umbrella sedge; [7]): 80 | Plant response rating, Sedge, Umbrella (umbrella sedge; [8]): 80 | Plant response rating, Sedge, Umbrella (umbrella sedge; [10]): 80 | Plant response rating, Ducksalad (duck salad; [6]): 75 | Plant response rating, Ducksalad (duck salad; [7]): 75 | Plant response rating, Ducksalad (duck salad; [8]): 75 | Plant response rating, Ducksalad (duck salad; [10]): 80 | Plant response rating, Barnyardgrass (barnyardgrass [2]; [6]): 0 | Plant response rating, Barnyardgrass (barnyardgrass [2]; [7]): 0 | Plant response rating, Barnyardgrass (barnyardgrass [2]; [8]): 0 | Plant response rating, Barnyardgrass (barnyardgrass [2]; [10]): 0
